# Measured values from US9187467B2, “2-phenyl benzothiazole linked imidazole compounds as potential anticancer agents and process for the preparation thereof” (Council of Scientific and Industrial Research, priority 2012, dated 2015).
# Tests used:
# PC-3 = assay: SRB anticancer assay, prostate; format: cell-based, human; design: Log10GI50: unit not given here; conditions: for GI50: Homo sapiens, PC-3, 48 h; for Log10GI50: PC-3, present compounds
# OVCAR-5 = assay: SRB anticancer assay, ovarian; format: cell-based, human; conditions: Homo sapiens, OVCAR-5, 48 h
# [1] = test system: MCF-7 (Breast carcinoma) cells; assay: Cell cycle distribution by flow cytometry (FACS); format: cell-based; conditions: MCF-7 cells, 2 μM, 24h
# Description: FIG. 1 represents FACS analysis of cell cycle distribution of MCF-7 cells after treatment with compounds CA-4, 21a, 21d, 4c, 6d, 6e, 6f, 7d, 7h and 7j at 2 μM concentration for 24h and control cells are the cells treated with DMSO (0.25%).
# (§1) In order to investigate the mechanism underlying the anti-proliferative effect of the compounds the cell cycle distribution was analyzed in K562 (Leukemia) and MCF-7 (Breast carcinoma) cell lines by flow cytometry. Compounds CA-4, 21a, 21d, 4c, 6d, 6e, 6f, 7d, 7h and 7j have shown 1.72%, 14%, 12%, 14%, 12%, 14%, 14%, 16%, 16% &12% in K562 cells and 49.63%, 21%, 20%, 18%, 21%, 21%, 21%, 24%, 23% and 23% in MCF-7 cell line respectively. […] Thus compound 7d was considered for further studies (FIG. 1).
# HS 578T = assay: SRB anticancer assay, breast; format: cell-based, human; design: Log10GI50: unit not given here; conditions: for Log10GI50: present compounds
# UACC-62 = assay: SRB anticancer assay, melanoma; format: cell-based, human; conditions: for GI50: Homo sapiens, UACC-62, 48 h; for Log10GI50: UACC-62, present compounds
# OVCAR-8 = assay: SRB anticancer assay, ovarian; format: cell-based, human; design: Log10GI50: unit not given here; conditions: for GI50: Homo sapiens, OVCAR-8, 48 h; for Log10GI50: OVCAR-8, present compounds
# SR = assay: SRB anticancer assay, leukemia; format: cell-based, human; conditions: Homo sapiens, 48 h
# SN12C = assay: SRB anticancer assay, renal; format: cell-based, human; design: Log10GI50: unit not given here; conditions: for GI50: Homo sapiens, 48 h; for Log10GI50: present compounds
# ACHN = assay: SRB anticancer assay, renal; format: cell-based, human; design: Log10GI50: unit not given here; conditions: for GI50: Homo sapiens, 48 h; for Log10GI50: present compounds
# SNB-19 = assay: SRB anticancer assay, CNS; format: cell-based, human; design: Log10GI50: unit not given here; conditions: for GI50: Homo sapiens, SNB-19, 48 h; for Log10GI50: SNB-19, present compounds
# SK-MEL-28 = assay: SRB anticancer assay, melanoma; format: cell-based, human; design: Log10GI50: unit not given here; conditions: for GI50: Homo sapiens, SK-MEL-28, 48 h; for Log10GI50: SK-MEL-28, present compounds
# NCI-H322M = assay: SRB anticancer assay, non-small lung; format: cell-based, human; conditions: Homo sapiens, 48 h
# SNB-75 = assay: SRB anticancer assay, CNS; format: cell-based, human; design: Log10GI50: unit not given here; conditions: for GI50: Homo sapiens, SNB-75, 48 h; for Log10GI50: SNB-75, present compounds
# U251 = assay: SRB anticancer assay, CNS; format: cell-based, human; design: Log10GI50: unit not given here; conditions: for GI50: Homo sapiens, U-251, U251, 48 h; for Log10GI50: U251, present compounds
# NCI-H460 = assay: SRB anticancer assay, non-small lung; format: cell-based, human; conditions: Homo sapiens, NCI-H460, 48 h
# BT-549 = assay: SRB anticancer assay, breast; format: cell-based, human; design: Log10GI50: unit not given here; conditions: for GI50: Homo sapiens, BT-549, 48 h
# RXF 393 = assay: SRB anticancer assay, renal; format: cell-based, human; design: Log10GI50: unit not given here; conditions: for GI50: Homo sapiens, RXF 393, 48 h; for Log10GI50: RXF 393, present compounds
# SF-539 = assay: SRB anticancer assay, CNS; format: cell-based, human; design: Log10GI50: unit not given here; conditions: for GI50: Homo sapiens, SF-539, 48 h; for Log10GI50: SF-539, present compounds
# IGROV1 = assay: SRB anticancer assay, ovarian; format: cell-based, human; conditions: Homo sapiens, IGROV-1; IGROV1, 48 h
# UACC-257 = assay: SRB anticancer assay, melanoma; format: cell-based, human; conditions: for GI50: Homo sapiens, UACC-257, 48 h; for Log10GI50: UACC-257, present compounds
# K-562 = assay: SRB anticancer assay, leukemia; format: cell-based, human; design: Log10GI50: unit not given here
# SK-MEL-2 = assay: SRB anticancer assay, melanoma; format: cell-based, human
# HL-60 (TB) = assay: SRB anticancer assay, leukemia; format: cell-based, human; design: Log10GI50: unit not given here; conditions: for Log10GI50: HL-60(TB), present compounds; for GI50: Homo sapiens, HL-60, 48 h
# KM12 = assay: SRB anticancer assay, colon; format: cell-based, human; conditions: Homo sapiens, KM12, 48 h
# NCI-H522 = assay: SRB anticancer assay, non-small lung; format: cell-based, human; design: Log10GI50: unit not given here; conditions: for GI50: Homo sapiens, NCI-H522, 48 h; for Log10GI50: NCI-H522, present compounds
# K562 (Leukemia) cells = assay: Cell cycle distribution by flow cytometry; format: cell-based
# Description: as §1
# 786-0 = assay: SRB anticancer assay, renal; format: cell-based, human; conditions: for Log10GI50: 786-0, present compounds; for GI50: Homo sapiens, 786-0, 48 h
# SK-OV-3 = assay: SRB anticancer assay, ovarian; format: cell-based, human; conditions: Homo sapiens, SK-OV-3, 48 h
# NCI/ADR-RES = assay: SRB anticancer assay, ovarian; format: cell-based, human; design: Log10GI50: unit not given here; conditions: for GI50: Homo sapiens, NCI/ADR-RES, 48 h; for Log10GI50: present compounds
# HT29 = assay: SRB anticancer assay, colon; format: cell-based, human; conditions: Homo sapiens, HT-29; HT29, 48 h
# [2] = NCI/ADR-RES (row head NCI/ADR-)
# [3] = listed as head printed RES (second line of NCI/ADR-RES)
smiles,measurement,setting,value
"COc1cc(OC)cc(-c2cncn2-c2ccc(-c3nc4cc(OC)c(OC)c(OC)c4s3)cc2)c1 [Compound 7d, 2-(4-(5-(3,5-Dimethoxyphenyl)-1H-imidazol-1-yl)phenyl)-5,6,7-trimethoxybenzo[d]thiazole]",GI50,PC-3,3.17 µM
same,Log10GI50,PC-3,−5.50
same,GI50,OVCAR-5,> 100 µM
same,cells in G2/M phase,[1],24%
same,GI50,"HS 578T; Homo sapiens, 48 h",6.71 µM
same,Log10GI50,HS 578T,−4.68
same,GI50,UACC-62,13.8 µM
same,Log10GI50,UACC-62,−4.86 log10 M
same,GI50,OVCAR-8,13.4 µM
same,Log10GI50,OVCAR-8,−4.87
same,GI50,SR,7.14 µM
same,GI50,SN12C,31.9 µM
same,Log10GI50,SN12C,−4.50
same,GI50,ACHN,11.5 µM
same,Log10GI50,ACHN,−4.94
same,GI50,SNB-19,19.7 µM
same,Log10GI50,SNB-19,−4.70
same,GI50,SK-MEL-28,31.6 µM
same,Log10GI50,SK-MEL-28,−4.50
same,GI50,NCI-H322M,86.5 µM
same,GI50,SNB-75,15 µM
same,Log10GI50,SNB-75,−4.82
same,GI50,U251,5.44 µM
same,Log10GI50,U251,−5.26
same,GI50,NCI-H460,7.46 µM
same,Log10GI50,"BT-549; BT-549, present compounds",−5.17
same,GI50,BT-549,4.74 µM
same,GI50,RXF 393,30.2 µM
same,Log10GI50,RXF 393,−4.52
same,GI50,SF-539,22 µM
same,Log10GI50,SF-539,−4.66
same,GI50,IGROV1,9.6 µM
same,GI50,UACC-257,20.5 µM
same,Log10GI50,UACC-257,−4.69 log10(M)
same,GI50,"K-562; Homo sapiens, K562, K-562, 48 h",3.57 µM
same,Log10GI50,"K-562; K-562, present compounds",−5.45
same,GI50,"SK-MEL-2; Homo sapiens, SK-MEL-2, 48 h",6.16 µM
same,Log10GI50,"SK-MEL-2; SK-MEL-2, present compounds",−5.21 M
same,Log10GI50,HL-60 (TB),−5.61
same,GI50,HL-60 (TB),2.43 µM
same,GI50,KM12,5.54 µM
same,GI50,NCI-H522,11.8 µM
same,Log10GI50,NCI-H522,−4.93
same,cells in G2/M phase,K562 (Leukemia) cells,16%
same,Log10GI50,786-0,−4.99 log10 M
same,GI50,786-0,10.3 µM
same,GI50,SK-OV-3,49.9 µM
same,GI50,NCI/ADR-RES,11 µM
same,Log10GI50,NCI/ADR-RES; [2],−4.96
same,Log10GI50,NCI/ADR-RES; [3],−4.30
same,GI50,HT29,8.33 µM
"COc1cc2nc(-c3ccc(-n4cncc4-c4ccc(N)cc4)cc3)sc2c(OC)c1OC [Compound 7h, 4-(1-(4-(5,6,7-Trimethoxybenzo[d]thiazol-2-yl)phenyl)-1H-imidazol-5-yl)benzenamine]",GI50,PC-3,3.02 µM
same,Log10GI50,PC-3,−5.52
same,GI50,OVCAR-5,34.3 µM
same,cells in G2/M phase,[1],23%
same,Log10GI50,HS 578T,−5.27
same,GI50,UACC-62,5.45 µM
same,Log10GI50,UACC-62,−5.26 log10 M
same,GI50,OVCAR-8,4.23 µM
same,Log10GI50,OVCAR-8,−5.37
same,GI50,SR,1.4 µM
same,GI50,SN12C,8.95 µM
same,Log10GI50,SN12C,−5.05
same,GI50,ACHN,8.56 µM
same,Log10GI50,ACHN,−5.07
same,GI50,SNB-19,12.3 µM
same,Log10GI50,SNB-19,−4.91
same,GI50,SK-MEL-28,> 100 µM
same,Log10GI50,SK-MEL-28,>−4.0
same,GI50,NCI-H322M,2.07 µM
same,GI50,SNB-75,5.94 µM
same,Log10GI50,SNB-75,−5.23
same,GI50,U251,3.84 µM
same,Log10GI50,U251,−5.42
same,GI50,NCI-H460,5.13 µM
same,GI50,BT-549,1.59 µM
same,GI50,RXF 393,4.41 µM
same,Log10GI50,RXF 393,−5.36
same,GI50,SF-539,7.14 µM
same,Log10GI50,SF-539,−5.15
same,GI50,IGROV1,2.63 µM
same,GI50,UACC-257,6.4 µM
same,Log10GI50,UACC-257,−5.19 log10(M)
same,Log10GI50,HL-60 (TB),−6.00
same,GI50,HL-60 (TB),0.989 µM
same,GI50,NCI-H522,2.74 µM
same,Log10GI50,NCI-H522,−5.56
same,cells in G2/M phase,K562 (Leukemia) cells,16%
same,Log10GI50,786-0,−5.20 log10 M
same,GI50,786-0,6.26 µM
same,GI50,SK-OV-3,11.7 µM
same,GI50,NCI/ADR-RES,1.61 µM
same,Log10GI50,NCI/ADR-RES; [2],−5.79
same,Log10GI50,NCI/ADR-RES; [3],−4.93
same,GI50,HT29,2.79 µM
